Values joined by “and” are separate entries in the source; they are usually repeats but may differ in a detail not shown here. Identical values can stand only once. One block for each molecule: values may come before it. Starred links: 1 amine or outer side, 2 acyl side, 3 side chain; linkers in the order of their positions; H or OH if unused. Positions of bridges follow the written chain, without caps; N, C: chain ends. Non-standard residues stand in square brackets, D forms with d. Residues, ends and D or L forms follow the SMILES beside them. TATA = O=C(CC[*:1])N1CN(C(=O)CC[*:2])CN(C(=O)CC[*:3])C1; Phe(4-F) = N[C@@H](Cc1ccc(F)cc1)C(=O)O; β3hR = N=C(N)NCCC[C@H](N)CC(=O)O
How the values were obtained:
[1] = biological target: T1, Mouse α-FXIIa (Mus musculus, UniProt Q80YC5); assay: FXIIa protease inhibition assay with fluorogenic substrate Boc-Gln-Gly-Arg-AMC; format: biochemical; settings: purified peptide without coumarin label; read-out: Ki mouse FXIIa
T1 construct: Mouse α-FXIIa; purchased Molecular Innovations MFXIIA
T1 sequence (Q80YC5 355-597 limits assumed): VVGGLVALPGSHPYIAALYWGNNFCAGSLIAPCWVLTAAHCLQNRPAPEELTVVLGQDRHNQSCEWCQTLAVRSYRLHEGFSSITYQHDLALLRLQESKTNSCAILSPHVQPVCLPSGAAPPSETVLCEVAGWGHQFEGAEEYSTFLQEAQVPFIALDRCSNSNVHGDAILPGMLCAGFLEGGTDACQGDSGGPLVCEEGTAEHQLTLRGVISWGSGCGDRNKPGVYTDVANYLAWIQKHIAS
T1 sequence (Q80YC5 20-354 limits assumed): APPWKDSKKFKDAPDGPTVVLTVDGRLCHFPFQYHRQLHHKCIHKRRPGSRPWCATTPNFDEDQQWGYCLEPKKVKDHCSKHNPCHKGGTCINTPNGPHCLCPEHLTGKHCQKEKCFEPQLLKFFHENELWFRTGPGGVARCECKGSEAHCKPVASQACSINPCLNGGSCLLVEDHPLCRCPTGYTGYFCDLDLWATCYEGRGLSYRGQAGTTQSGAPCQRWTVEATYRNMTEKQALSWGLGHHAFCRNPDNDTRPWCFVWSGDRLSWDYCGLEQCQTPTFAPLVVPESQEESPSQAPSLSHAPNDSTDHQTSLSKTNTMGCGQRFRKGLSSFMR
Experimental: (§1) In order to test the inhibitory activity of peptides without prior purification, we developed the following method. […] After solid-phase peptide synthesis, cleavage, and ether precipitation, the peptides were chemically cyclized and their Ki values were determined in a FXIIa activity assay using a fluorogenic substrate.
(§2) Protease inhibition assays
(§3) The inhibitory activity of peptides was determined by measuring the residual protease activity with a fluorogenic substrate. The assay was performed in buffer containing 10 mM Tris-Cl, pH […]
(§4) 1% (v/v) DMSO in a volume of 150 µl. FXIIa activity was measured with the fluorogenic substrate Boc-Gln-Gly-Arg-AMC (Bachem) at a final concentration of 50 µM. Mouse α-FXIIa (Molecular Innovations cat # MFXIIA) and human β-FXIIa (Molecular Innovations cat # HFXIIAB) were used at final concentrations of 0.4 nM. The reaction was pipetted as follows: 50 µl of bicyclic peptide in assay buffer were added to 50 µl of FXIIa in assay buffer and incubated for 10 minutes at 25°C before 50 µl of 150 µM fluorogenic substrate in assay buffer were added to measure the residual protease activity with an Infinite M200Pro fluorescence plate reader (excitation at 368 nm, emission at 467 nm; Tecan) for a period of 30 minutes with a read every minute at 25°C. The Tecan software i-control (version 1.1) was used for data analysis. Stock solutions of 1 mM bicyclic peptide were prepared by either dissolving the unpurified cyclization reaction with water or by dissolving purified and lyophilized peptide in water. The bicyclic peptides were serially diluted two-fold using assay buffer. Sigmoidal curves were fitted to the data using the following dose response equation (1), wherein x = peptide concentration, y = % protease activity, and p = Hill slope. IC50 values were derived from the fitted curve.
(§5) The inhibition constants (Ki) were calculated according to the equation of Cheng and Prusoff, Ki = IC50/(1+([S]0/Km), wherein IC50 is the functional strength of the inhibitor, [S]0 is the total substrate concentration, and Km is the Michaelis-Menten constant. […]
(§6) the substrate Boc-Gln-Gly-Arg-AMC. […]

[2] = biological target: T2, human β-FXIIa (Homo sapiens, UniProt P00748); assay: as above; format: biochemical; settings: for Ki: purified peptide without coumarin label, read-out: Ki human FXIIa
T2 construct: human β-FXIIa (Molecular Innovations cat #); purchased Molecular Innovations HFXIIAB; host or cells: human blood
T2 sequence (P00748 373-615 limits assumed, other chains not shown): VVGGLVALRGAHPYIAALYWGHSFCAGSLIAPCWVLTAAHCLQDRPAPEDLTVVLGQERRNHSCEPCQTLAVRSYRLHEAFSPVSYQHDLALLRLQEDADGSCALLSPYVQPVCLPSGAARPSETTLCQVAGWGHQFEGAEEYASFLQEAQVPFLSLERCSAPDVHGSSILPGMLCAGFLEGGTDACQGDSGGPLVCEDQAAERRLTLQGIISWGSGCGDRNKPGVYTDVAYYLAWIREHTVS
Experimental: as §1, §2, §3, §4, §5, §6

- Ki [1]: 0.91 ± 0.04 nM
- Ki [2]: 0.31 ± 0.02 nM
SMILES: CC(C)C[C@@H]1NC(=O)[C@H](CCC(N)=O)NC(=O)[C@H](CCCNC(=N)N)NC(=O)[C@@H]2CSCCC(=O)N3CN(CN(C3)C(=O)CCSC[C@H](NC(=O)[C@@H](CO)NC(=O)[C@H](N)CCCNC(=N)N)C(=O)N[C@@H](Cc3ccc(F)cc3)C(=O)N[C@@H](CCCNC(=N)N)C(=O)N[C@@H](CC(C)C)C(=O)N3CCC[C@H]3C(=O)N2)C(=O)CCSC[C@@H](C(=O)N[C@@H](CCCNC(=N)N)C(N)=O)NC(=O)C[C@H](CCCNC(=N)N)NC1=O [Arg8His reverted] (H-[dR][dS]C[Phe(4-F)]RLPCRQL[β3hR]CR-NH2; linker 3-8-13 via TATA)

SMILES: CC(C)C[C@@H]1NC(=O)[C@H](CCC(N)=O)NC(=O)[C@H](Cc2c[nH]cn2)NC(=O)[C@@H]2CSCCC(=O)N3CN(CN(C3)C(=O)CCSC[C@H](NC(=O)[C@@H](CO)NC(=O)[C@H](N)CCCNC(=N)N)C(=O)N[C@@H](Cc3ccc(F)cc3)C(=O)N[C@@H](CCCNC(=N)N)C(=O)N[C@@H](CC(C)C)C(=O)N3CCC[C@H]3C(=O)N2)C(=O)CCSC[C@@H](C(=O)N[C@@H](CCCNC(=N)N)C(N)=O)NC(=O)[C@H](CCCNC(=N)N)NC1=O [Arg11βhArg reverted] (HELM PEPTIDE1{[dR].[dS].C.[O=C([C@H](Cc1ccc(F)cc1)N[*:1])[*:2]].R.L.P.C.H.Q.L.R.C.R.[am]}|CHEM1{[O=C(CC[*:1])N1CN(C(=O)CC[*:2])CN(C(=O)CC[*:3])C1]}$PEPTIDE1,CHEM1,3:R3-1:R1|PEPTIDE1,CHEM1,8:R3-1:R2|PEPTIDE1,CHEM1,13:R3-1:R3$$$V2.0)
- Ki [1]: 0.9 ± 0.4 nM
- Ki [2]: 0.51 ± 0.1 nM

- Ki [1]: 36 nM
- Residual activity of human FXIIa ([2]; inhibitor 0.390625 nM, 0.000390625 µM): 96.2983%
- remaining activity at 0.000390625 µM ([2]; inhibitor 0.390625 nM, read-out: Residual activity of human FXIIa): 93.8%
- Residual activity of human FXIIa ([2]; inhibitor 0.78125 nM, 0.00078125 µM): 91.5155%
- remaining activity at 0.00078125 µM ([2]; inhibitor 0.78125 nM, read-out: Residual activity of human FXIIa): 90.5%
- Residual activity of human FXIIa ([2]; inhibitor 1.5625 nM, 0.0015625 µM): 83.5319%
- remaining activity at 0.0015625 µM ([2]; inhibitor 1.5625 nM, read-out: Residual activity of human FXIIa): 84.1%
- Residual activity of human FXIIa ([2]; inhibitor 3.125 nM, 0.003125 µM): 70.2169%
- remaining activity at 0.003125 µM ([2]; inhibitor 3.125 nM, read-out: Residual activity of human FXIIa): 72.3%
- Residual activity of human FXIIa ([2]; inhibitor 6.25 nM, 0.00625 µM): 54.9417%
- remaining activity at 0.00625 µM ([2]; inhibitor 6.25 nM, read-out: Residual activity of human FXIIa): 56.8%
- Residual activity of human FXIIa ([2]; inhibitor 12.5 nM, 0.0125 µM): 37.7877%
- remaining activity at 0.0125 µM ([2]; inhibitor 12.5 nM, read-out: Residual activity of human FXIIa): 38.2%
- Residual activity of human FXIIa ([2]; inhibitor 25 nM, […]): 23.2045%
- remaining activity at […] ([2]; inhibitor 25 nM, read-out: Residual activity of human FXIIa): 25%
- Residual activity of human FXIIa ([2]; inhibitor 50 nM, 0.05 µM): 12.5321%
- remaining activity at 0.05 µM ([2]; inhibitor 50 nM, read-out: Residual activity of human FXIIa): 14.1%
- Residual activity of human FXIIa ([2]; inhibitor 100 nM, 0.1 µM): 6.25%
- remaining activity at 0.1 µM ([2]; inhibitor 100 nM, read-out: Residual activity of human FXIIa): 6.97%
- Residual activity of human FXIIa ([2]; inhibitor 200 nM, 0.2 µM): 1.167% and 2.638%
- Residual activity of human FXIIa ([2]; inhibitor 400 nM, 0.4 µM): 1.099%
- remaining activity at 0.4 µM ([2]; inhibitor 400 nM, read-out: Residual activity of human FXIIa): 1.94%
- Ki [2]: 6.5 nM
SMILES: CC(C)C[C@@H]1NC(=O)[C@H](CCC(N)=O)NC(=O)[C@H](Cc2c[nH]cn2)NC(=O)[C@@H]2CSCCC(=O)N3CN(CN(C3)C(=O)CCSC[C@H](NC(=O)[C@@H](N)CCCNC(=N)N)C(=O)N[C@@H](Cc3ccccc3)C(=O)N[C@@H](CCCNC(=N)N)C(=O)N[C@@H](CC(C)C)C(=O)N3CCC[C@H]3C(=O)N2)C(=O)CCSC[C@@H](C(=O)N[C@@H](CCCNC(=N)N)C(N)=O)NC(=O)[C@H](CCCNC(=N)N)NC1=O [FXII851] (HELM PEPTIDE1{R.C.F.R.L.P.C.H.Q.L.R.C.R.[am]}|CHEM1{[O=C(CC[*:1])N1CN(C(=O)CC[*:2])CN(C(=O)CC[*:3])C1]}$PEPTIDE1,CHEM1,2:R3-1:R1|PEPTIDE1,CHEM1,7:R3-1:R2|PEPTIDE1,CHEM1,12:R3-1:R3$$$V2.0)

- Ki [1]: 0.5 ± 0.15 nM
- Ki [2]: 0.34 ± 0.03 nM
SMILES: CC(C)C[C@@H]1NC(=O)[C@H](CCC(N)=O)NC(=O)[C@H](Cc2c[nH]cn2)NC(=O)[C@@H]2CSCCC(=O)N3CN(CN(C3)C(=O)CCSC[C@H](NC(=O)[C@@H](CO)NC(=O)[C@H](N)CCCNC(=N)N)C(=O)N[C@@H](Cc3ccc(F)cc3)C(=O)N[C@@H](CCCNC(=N)N)C(=O)N[C@@H](CC(C)C)C(=O)N3CCC[C@H]3C(=O)N2)C(=O)CCSC[C@@H](C(=O)N[C@@H](CCCNC(=N)N)C(N)=O)NC(=O)C[C@H](CCCNC(=N)N)NC1=O [FXII900 (with C-term Arg)] (H-[dR][dS]C[Phe(4-F)]RLPCHQL[β3hR]CR-NH2; linker 3-8-13 via TATA)

- Ki [1]: 1.9 ± 0.5 nM
- Ki [2]: 0.7 ± 0.06 nM
SMILES: CC(C)C[C@@H]1NC(=O)[C@H](CCC(N)=O)NC(=O)[C@H](Cc2c[nH]cn2)NC(=O)[C@@H]2CSCCC(=O)N3CN(CN(C3)C(=O)CCSC[C@H](NC(=O)[C@@H](CO)NC(=O)[C@H](N)CCCNC(=N)N)C(=O)N[C@@H](Cc3ccccc3)C(=O)N[C@@H](CCCNC(=N)N)C(=O)N[C@@H](CC(C)C)C(=O)N3CCC[C@H]3C(=O)N2)C(=O)CCSC[C@@H](C(=O)N[C@@H](CCCNC(=N)N)C(N)=O)NC(=O)C[C@H](CCCNC(=N)N)NC1=O [Phe3Phe4F reverted] (HELM PEPTIDE1{[dR].[dS].C.F.R.L.P.C.H.Q.L.[N=C(N)NCCC[C@@H](CC(=O)[*:2])N[*:1]].C.R.[am]}|CHEM1{[O=C(CC[*:1])N1CN(C(=O)CC[*:2])CN(C(=O)CC[*:3])C1]}$PEPTIDE1,CHEM1,3:R3-1:R1|PEPTIDE1,CHEM1,8:R3-1:R2|PEPTIDE1,CHEM1,13:R3-1:R3$$$V2.0)
